From ChEMBL document CHEMBL3885861, “Open TG-GATES”

Species: Rattus norvegicus
Test: Open TG-GATES - Regimen: Single
Format: toxicity, organism-based, Sprague-Dawley
Design: regimen Single, gender Male, age 6 weeks
Conditions: in vivo, po, 0 mg/kg, route gavage, dose level Control; for APTT / Bas / Eos / Fbg / Hb / Ht / Lym / MCH / MCHC / MCV / Mono / Neu / PT / Plat / RBC / Ret / WBC: tissue Blood; for KIDNEY_L / KIDNEY_R / KIDNEY_TOTAL: tissue Kidney; for LIVER: tissue Liver; for A/G / ALP / ALT / AST / BUN / CRE / Ca / Cl / DBIL / GLC / IP / K / LDH / Na / PL / RALB / TBIL / TC / TG / TP / gamma-GTP: tissue Plasma

In the case of `CN(C)CCC=C1c2ccccc2CCc2ccccc21` [AMITRIPTYLINE], the TERMINAL_BW (3 h) is reported as 194 g, the APTT (3 h) is reported as 16.6 s and the Bas (3 h) is reported as 0%. It also gave an Eos (3 h) of 0.8%, a Fbg (3 h) of 235.6 mg/dL and a Hb (3 h) of 12.8 g/dL. The Ht (3 h) was 39.8%, the Lym (3 h) was 77.6% and the MCH (3 h) was 20.9 pg. The MCHC (3 h) was 32.3%, the MCV (3 h) was 64.6 fL and the Mono (3 h) was 3.4%. For the same compound, the Neu (3 h) was 17.2%, the PT (3 h) was 16.2 s and the Plat (3 h) was 103.9 x10_4/uL. It also gave an RBC (3 h) of 616.6 x10_4/ul, a Ret (3 h) of 9.3% and a WBC (3 h) of 90.6 x10_2/uL. For the same compound, the KIDNEY_L (3 h) was 0.9 g, the KIDNEY_R (3 h) was 0.9 g and the KIDNEY_TOTAL (3 h) was 1.7 g. For the same compound, the LIVER (3 h) was 8.2 g, the A/G (3 h) was 0.8 and the ALP (3 h) was 1452 IU/L. For the same compound, the ALT (3 h) was 48.2 IU/L, the AST (3 h) was 80.8 IU/L and the BUN (3 h) was 8.8 mg/dL. It also gave a CRE (3 h) of 0.2 mg/dL, a Ca (3 h) of 10.7 mg/dL and a Cl (3 h) of 106 meq/L. It also gave a DBIL (3 h) of 0.01 mg/dL, a GLC (3 h) of 183.6 mg/dL and an IP (3 h) of 9.2 mg/dL. The K (3 h) was 4.1 meq/L, the LDH (3 h) was 66.2 IU/L and the Na (3 h) was 143 meq/L. The PL (3 h) was 124.4 mg/dL, the RALB (3 h) was 2.4 g/dL and the TBIL (3 h) was 0.062 mg/dL. For the same compound, the TC (3 h) was 67.6 mg/dL, the TG (3 h) was 44.4 mg/dL and the TP (3 h) was 5.3 g/dL. For the same compound, the gamma-GTP (3 h) was 1 IU/L, the TERMINAL_BW (6 h) was 193.8 g and the APTT (6 h) was 17 s. For the same compound, the Bas (6 h) was 0%, the Eos (6 h) was 0.8% and the Fbg (6 h) was 256.2 mg/dL. For the same compound, the Hb (6 h) was 12.7 g/dL, the Ht (6 h) was 38.9% and the Lym (6 h) was 72.6%. For the same compound, the MCH (6 h) was 20.6 pg, the MCHC (6 h) was 32.6% and the MCV (6 h) was 63.3 fL. For the same compound, the Mono (6 h) was 2.4%, the Neu (6 h) was 23.2% and the PT (6 h) was 15.8 s. For the same compound, the Plat (6 h) was 119.8 x10_4/uL, the RBC (6 h) was 615.8 x10_4/ul and the Ret (6 h) was 8.9%. It also gave a WBC (6 h) of 66 x10_2/uL, a KIDNEY_L (6 h) of 0.9 g and a KIDNEY_R (6 h) of 0.8 g. The KIDNEY_TOTAL (6 h) was 1.7 g, the LIVER (6 h) was 8.2 g and the A/G (6 h) was 0.9. The ALP (6 h) was 1334.2 IU/L, the ALT (6 h) was 44.6 IU/L and the AST (6 h) was 74.4 IU/L. The BUN (6 h) was 8.6 mg/dL, the CRE (6 h) was 0.1 mg/dL and the Ca (6 h) was 10.7 mg/dL. For the same compound, the Cl (6 h) was 105.8 meq/L, the DBIL (6 h) was 0.008 mg/dL and the GLC (6 h) was 173.6 mg/dL. The IP (6 h) was 9.8 mg/dL, the K (6 h) was 4.2 meq/L and the LDH (6 h) was 62 IU/L. The Na (6 h) was 142.6 meq/L, the PL (6 h) was 142.6 mg/dL and the RALB (6 h) was 2.5 g/dL. The TBIL (6 h) was 0.06 mg/dL, the TC (6 h) was 78.4 mg/dL and the TG (6 h) was 67 mg/dL. The TP (6 h) was 5.4 g/dL, the gamma-GTP (6 h) was 1 IU/L and the TERMINAL_BW (9 h) was 191.9 g. The APTT (9 h) was 16 s, the Bas (9 h) was 0% and the Eos (9 h) was 1%. It also gave a Fbg (9 h) of 295.6 mg/dL, a Hb (9 h) of 12.8 g/dL and a Ht (9 h) of 39.1%. For the same compound, the Lym (9 h) was 77.6%, the MCH (9 h) was 20.9 pg and the MCHC (9 h) was 32.8%. It also gave an MCV (9 h) of 63.9 fL, a Mono (9 h) of 2.4% and a Neu (9 h) of 18.6%. The PT (9 h) was 15.2 s, the Plat (9 h) was 119.1 x10_4/uL and the RBC (9 h) was 611.8 x10_4/ul. It also gave a Ret (9 h) of 8.5%, a WBC (9 h) of 71.6 x10_2/uL and a KIDNEY_L (9 h) of 0.9 g. The KIDNEY_R (9 h) was 0.9 g, the KIDNEY_TOTAL (9 h) was 1.7 g and the LIVER (9 h) was 7.8 g. It also gave an A/G (9 h) of 0.8, an ALP (9 h) of 1549.8 IU/L and an ALT (9 h) of 40.8 IU/L. For the same compound, the AST (9 h) was 71.4 IU/L, the BUN (9 h) was 8.8 mg/dL and the CRE (9 h) was 0.2 mg/dL. It also gave a Ca (9 h) of 10.7 mg/dL, a Cl (9 h) of 106.6 meq/L and a DBIL (9 h) of 0.01 mg/dL. It also gave a GLC (9 h) of 174.8 mg/dL, an IP (9 h) of 10 mg/dL and a K (9 h) of 4 meq/L. The LDH (9 h) was 60.4 IU/L, the Na (9 h) was 142.6 meq/L and the PL (9 h) was 140.4 mg/dL. The RALB (9 h) was 2.5 g/dL, the TBIL (9 h) was 0.06 mg/dL and the TC (9 h) was 79.4 mg/dL. The TG (9 h) was 44 mg/dL, the TP (9 h) was 5.4 g/dL and the gamma-GTP (9 h) was 1 IU/L. The TERMINAL_BW (24 h) was 208.1 g, the APTT (24 h) was 16.3 s and the Bas (24 h) was 0.4%. The Eos (24 h) was 1%, the Fbg (24 h) was 266 mg/dL and the Hb (24 h) was 12.5 g/dL. For the same compound, the Ht (24 h) was 38.5%, the Lym (24 h) was 77.8% and the MCH (24 h) was 21.2 pg. For the same compound, the MCHC (24 h) was 32.4%, the MCV (24 h) was 65.5 fL and the Mono (24 h) was 3.2%. It also gave a Neu (24 h) of 17%, a PT (24 h) of 16.3 s and a Plat (24 h) of 110 x10_4/uL. For the same compound, the RBC (24 h) was 589.4 x10_4/ul, the Ret (24 h) was 9.5% and the WBC (24 h) was 101.9 x10_2/uL. It also gave a KIDNEY_L (24 h) of 0.9 g, a KIDNEY_R (24 h) of 0.9 g and a KIDNEY_TOTAL (24 h) of 1.8 g. The LIVER (24 h) was 9.6 g, the A/G (24 h) was 0.8 and the ALP (24 h) was 1573.8 IU/L. It also gave an ALT (24 h) of 48.2 IU/L, an AST (24 h) of 77.4 IU/L and a BUN (24 h) of 15.4 mg/dL. For the same compound, the CRE (24 h) was 0.2 mg/dL, the Ca (24 h) was 11.1 mg/dL and the Cl (24 h) was 105 meq/L. For the same compound, the DBIL (24 h) was 0.016 mg/dL, the GLC (24 h) was 186.4 mg/dL and the IP (24 h) was 8.2 mg/dL. The K (24 h) was 4 meq/L, the LDH (24 h) was 90.2 IU/L and the Na (24 h) was 143.2 meq/L. The PL (24 h) was 153.8 mg/dL, the RALB (24 h) was 2.6 g/dL and the TBIL (24 h) was 0.054 mg/dL. It also gave a TC (24 h) of 79.4 mg/dL, a TG (24 h) of 97.4 mg/dL and a TP (24 h) of 5.6 g/dL. For the same compound, the gamma-GTP (24 h) was 0.6 IU/L.
